Each block holds one compound with its values, some of them ahead of it.
Assays:
[1] = test system: human erythropoietin (hEPO) mRNA expression; test: Animal Study 1: hEPO mRNA LNPs i.v. in mice, serum EPO by ELISA; format: in vivo; conditions: female ICR mice, 0.5 mg/kg tail vein injection, blood e.g. 6 hours post administration; relative to MC3 LNP
Protocol: Lipid nanoparticles comprising compounds in the following table encapsulating human erythropoietin (hEPO) mRNA were systemically administered to 6-8 week old female ICR mice (Xipuer-Bikai, Shanghai) at 0.5 mg/kg dose by tail vein injection and mice blood were sampled at specific time points (e.g., 6 hours) post administration. In addition to the aforementioned tested groups, lipid nanoparticles comprising dilinoleylmethyl-4-dimethylaminobutyrate (DLin-MC3-DMA, usually abbreviated to MC3) encapsulating hEPO mRNA were similarly administered at the same dose to age and gender comparative groups of mice as a positive control.
Mice were euthanized by CO2 overdoses after the last sampling time point. Serum were separated from total blood by centrifugation at 5000 g for 10 minutes at 4 T, snap-frozen and stored at −80 T for analysis. ELISA assay were carried out using a commercial kit (DEP00, R&D systems) according to manufacturer's instructions.
Characteristics of tested lipid nanoparticles, including EPO expression levels over MC3 measured from the tested group are listed in the table below.

[2] = Lipid nanoparticle size and polydispersity by dynamic light scattering; format: physicochemical; conditions: LNP comprising the compound, hEPO mRNA; for Size (nm): cationic lipid/DSPC/cholesterol/PEG-lipid 50:10:38.5:1.5
Protocol: (§1) Briefly, a cationic lipid provided herein, DSPC, cholesterol, and PEG-lipid were solubilized in ethanol at a molar ratio of 50:10:38.5:1.5, and mRNA were diluted in 10 to 50 mM citrate buffer, pH=4. The LNPs were prepared at a total lipid to mRNA weight ratio of approximately 10:1 to 30:1 by mixing the ethanolic lipid solution with the aqueous mRNA solution at a volume ratio of 1:3 using a microfluidic apparatus, total flow rate ranging from 9-30 mL/min. Ethanol were thereby removed and replaced by DPBS using dialysis. Finally, the lipid nanoparticles were filtered through a 0.2 μm sterile filter.
(§2) Lipid nanoparticle size were determined by dynamic light scattering using a Malvern Zetasizer Nano ZS (Malvern UK) using a 173° backscatter detection mode. The encapsulation efficiency of lipid nanoparticles were determined using a Quant-it Ribogreen RNA quantification assay kit (Thermo Fisher Scientific, UK) according to the manufacturer's instructions.

[3] = Encapsulation efficiency of lipid nanoparticles (Quant-it Ribogreen RNA assay); format: physicochemical; conditions: LNP comprising the compound, hEPO mRNA
Protocol: as §1, §2

[4] = Apparent pKa of LNP formulations (TNS fluorescence assay); format: physicochemical; conditions: LNP formulation, TNS assay (Table 2)
Protocol: As reported in literature, the apparent pKa of LNP formulations correlates with the delivery efficiency of LNPs for nucleic acids in vivo. The apparent pKa of each formulation was determined using an assay based on fluorescence of 2-(p-toluidino)-6-napthalene sulfonic acid (TNS). LNP formulations comprising of cationic lipid/DSPC/cholesterol/DMG-PEG (50/10/38.5/1.5 mol %) in PBS were prepared as described above. TNS was prepared as a 300 μM stock solution in distilled water. LNP formulations were diluted to 0.1 mg/mL total lipid in 3 mL of buffered solutions containing 50 mM sodium citrate, 50 mM sodium phosphate, 50 mM sodium borate, and 30 mM sodium chloride where the pH ranged from 3 to 9. An aliquot of the TNS solution was added to give a final concentration of […] and following vortex mixing fluorescence intensity was measured at room temperature in a Molecular Devices Spectramax iD3 spectrometer using excitation and mission wavelengths of 325 nm and 435 nm. A sigmoidal best fit analysis was applied to the fluorescence data and the pKa value was measured as the pH giving rise to half-maximal fluorescent intensity.

Structure (SMILES): CCCCCCCC(=O)OCC(CCCCN(CCO)CCCCC(COC(=O)CCCCCCC)COC(=O)CCCCCCC)COC(=O)CCCCCCC [Compound 1]
- EPO expression over MC3 [1]: A (≥2)

Structure (SMILES): CCCCCCCC(=O)OCC(CCCCN(CCCCC(COC(=O)CCCCCCC)COC(=O)CCCCCCC)CCN(CCO)C1CCC1)COC(=O)CCCCCCC [Compound 2]
- EPO expression over MC3 [1]: A (≥2)

Structure (SMILES): CCCCCCCC(=O)OCC(CCCCN(CCCCCO)CCCCC(COC(=O)CCCCCCC)COC(=O)CCCCCCC)COC(=O)CCCCCCC [Compound 3]
- Polydispersity [2]: 0.101
- Size (nm) [2]: 72.97 nm
- Encapsulation efficiency [3]: 88.90%
- EPO expression over MC3 [1]: A (≥2)
- Apparent pKa [4]: 6.726

Structure (SMILES): CCCCCCCCCCCCOC(=O)CCCCCN(CCO)CCCCCC(=O)OCC(COC(=O)CCCCCCC)COC(=O)CCCCCCC [Compound 4]
- EPO expression over MC3 [1]: C (≥0.1 and <1)
- Apparent pKa [4]: 6.943

Structure (SMILES): CCCCCCCCC(CCCCCC)C(=O)OCC(CCCCN(CCO)CCCCC(COC(=O)CCCCCCC)COC(=O)CCCCCCC)COC(=O)C(CCCCCC)CCCCCCCC (stereo not shown) [Compound 12]
- Polydispersity [2]: 0.053
- Size (nm) [2]: 56.95 nm
- Encapsulation efficiency [3]: 87.61%
- EPO expression over MC3 [1]: D (<0.1)

Structure (SMILES): CCCCCCCC(=O)OCC(COC(=O)CCCCCCC)OCCCN(CCCOC(COC(=O)CCCCCCC)COC(=O)CCCCCCC)CCN(CCO)C1CCCCC1 [Compound 14]
- Polydispersity [2]: 0.049
- Size (nm) [2]: 91.43 nm
- Encapsulation efficiency [3]: 82.84%
- EPO expression over MC3 [1]: A (≥2)
- Apparent pKa [4]: 6.457

Structure (SMILES): CCCCCCCCOC(CCCCCN(CCO)CCCCCC(OCCCCCCCC)OCCCCCCCC)OCCCCCCCC [Compound 15]
- Polydispersity [2]: 0.096
- Size (nm) [2]: 77.33 nm
- Encapsulation efficiency [3]: 94.67%
- EPO expression over MC3 [1]: C (≥0.1 and <1)
- Apparent pKa [4]: 6.219

Structure (SMILES): CCCCCCCC(=O)OCC(CCCCN(CCCCC(COC(=O)CCCCCCC)COC(=O)CCCCCCC)C1CCC(O)CC1)COC(=O)CCCCCCC (stereo not shown) [Compound 16]
- Polydispersity [2]: 0.021
- Size (nm) [2]: 68.14 nm
- Encapsulation efficiency [3]: 90.78%
- EPO expression over MC3 [1]: A (≥2)
- Apparent pKa [4]: 6.509

Structure (SMILES): CCCCCCCCOC(CCCCCN(CCCCCC(OCCCCCCCC)OCCCCCCCC)CCOCCO)OCCCCCCCC [Compound 17]
- Polydispersity [2]: 0.056
- Size (nm) [2]: 79.67 nm
- Encapsulation efficiency [3]: 96.64%
- EPO expression over MC3 [1]: C (≥0.1 and <1)
- Apparent pKa [4]: 6.189

Structure (SMILES): CCCCCCCCOC(CCCCCN(CCCCO)CCCCCC(OCCCCCCCC)OCCCCCCCC)OCCCCCCCC [Compound 18]
- Polydispersity [2]: 0.057
- Size (nm) [2]: 62.64 nm
- Encapsulation efficiency [3]: 93.58%
- EPO expression over MC3 [1]: B (≥1 and <2)
- Apparent pKa [4]: 6.251

Continued, in another order:

- Polydispersity [2]: 0.07
- Size (nm) [2]: 64.48 nm
- Encapsulation efficiency [3]: 95.52%
- Apparent pKa [4]: 6.216
Structure (SMILES): CCCCCCCCOC(CCCCCN(CCCCCO)CCCCCC(OCCCCCCCC)OCCCCCCCC)OCCCCCCCC [Compound 19]
- EPO expression over MC3 [1]: B (≥1 and <2)

- Polydispersity [2]: 0.078
- Size (nm) [2]: 72.72 nm
- Encapsulation efficiency [3]: 91.22%
- Apparent pKa [4]: 6.889
Structure (SMILES): CCCCCCCCCCCCCCCC(=O)OCCCCCCN(CCO)CCCCC(COC(=O)CCCCCCC)COC(=O)CCCCCCC [Compound 20]
- EPO expression over MC3 [1]: A (≥2)

- Polydispersity [2]: 0.017
- Size (nm) [2]: 73.11 nm
- Encapsulation efficiency [3]: 93.42%
- Apparent pKa [4]: 6.962
Structure (SMILES): CCCCCCCCCCCCCCCCCC(=O)OCCCCCCN(CCO)CCCCC(COC(=O)CCCCCCC)COC(=O)CCCCCCC [Compound 21]
- EPO expression over MC3 [1]: B (≥1 and <2)

- Polydispersity [2]: 0.051
- Size (nm) [2]: 79.16 nm
- Encapsulation efficiency [3]: 89.98%
- Apparent pKa [4]: 6.748
Structure (SMILES): CCCCC/C=C\C/C=C\CCCCCCCC(=O)OCCCCCCN(CCO)CCCCC(COC(=O)CCCCCCC)COC(=O)CCCCCCC [Compound 22]
- EPO expression over MC3 [1]: A (≥2)

- Polydispersity [2]: 0.084
- Size (nm) [2]: 69.97 nm
- Encapsulation efficiency [3]: 89.04%
- Apparent pKa [4]: 6.601
Structure (SMILES): CCCCCCCC(=O)OCC(CCCCN(CCCCC(COC(=O)CCCCCCC)COC(=O)CCCCCCC)C1CC(O)C1)COC(=O)CCCCCCC (stereo not shown) [Compound 23]
- EPO expression over MC3 [1]: A (≥2)

- Polydispersity [2]: 0.07
- Size (nm) [2]: 70.66 nm
- Encapsulation efficiency [3]: 90.29%
- Apparent pKa [4]: 6.745
Structure (SMILES): CCCCCCCC/C=C\CCCCCCCC(=O)OCCCCCCN(CCO)CCCCC(COC(=O)CCCCCCC)COC(=O)CCCCCCC [Compound 24]
- EPO expression over MC3 [1]: C (≥0.1 and <1)

- Polydispersity [2]: 0.085
- Size (nm) [2]: 98.05 nm
- Encapsulation efficiency [3]: 82.87%
- Apparent pKa [4]: 6.418
Structure (SMILES): CCCCCCCC(=O)OCC(COC(=O)CCCCCCC)OCCCN(CCCCCO)CCCOC(COC(=O)CCCCCCC)COC(=O)CCCCCCC [Compound 25]
- EPO expression over MC3 [1]: B (≥1 and <2)

- Polydispersity [2]: 0.1163
- Size (nm) [2]: 66.72 nm
- Encapsulation efficiency [3]: 93.31%
Structure (SMILES): CCCCCCCCCCC(=O)OCCCCCCN(CCCCC(COC(=O)CCCCCCC)COC(=O)CCCCCCC)CCCNc1c(N(C)C)c(=O)c1=O [Compound 40]

- Polydispersity [2]: 0.08791
- Size (nm) [2]: 55.42 nm
- Encapsulation efficiency [3]: 95.98%
Structure (SMILES): CCCCCCCCCCCCCCCCCC(=O)OCCCCCCN(CCCCC(COC(=O)CCCCCCC)COC(=O)CCCCCCC)CCCNc1c(N(C)C)c(=O)c1=O [Compound 41]

- Polydispersity [2]: 0.126
- Size (nm) [2]: 74.63 nm
- Encapsulation efficiency [3]: 86.17%
Structure (SMILES): CCCCCCCC(=O)OCC(CCCCN(CCCCC(COC(=O)CCCCCCC)COC(=O)CCCCCCC)[C@@H](CO)C(C)C)COC(=O)CCCCCCC [Compound 44]

- Polydispersity [2]: 0.14
- Size (nm) [2]: 61.88 nm
- Encapsulation efficiency [3]: 86.40%
Structure (SMILES): CCCCCCCC(=O)OCC(CCCCN(CCCCC(COC(=O)CCCCCCC)COC(=O)CCCCCCC)CC1(CO)CCC1)COC(=O)CCCCCCC [Compound 45]

- Polydispersity [2]: 0.135
- Size (nm) [2]: 68.21 nm
- Encapsulation efficiency [3]: 73.99%
Structure (SMILES): CCCCCCCC(=O)OCC(CCCCN(CCCCC(COC(=O)CCCCCCC)COC(=O)CCCCCCC)[C@H](CO)C(C)C)COC(=O)CCCCCCC [Compound 46]

- Polydispersity [2]: 0.111
- Size (nm) [2]: 69.44 nm
- Encapsulation efficiency [3]: 83.82%
Structure (SMILES): CCCCCCCC(=O)OCC(CCCCN(CCCCC(COC(=O)CCCCCCC)COC(=O)CCCCCCC)CC1(CO)CCCC1)COC(=O)CCCCCCC [Compound 49]

- Polydispersity [2]: 0.117
- Size (nm) [2]: 67.07 nm
- Encapsulation efficiency [3]: 83.93%
Structure (SMILES): CCCCCCCC(=O)OCC(CCCCN(CCCCC(COC(=O)CCCCCCC)COC(=O)CCCCCCC)CCC1(O)CCCCC1)COC(=O)CCCCCCC [Compound 50]

Reference: US20240238212A1, “LIPID COMPOUNDS AND LIPID NANOPARTICLE COMPOSITIONS” (SUZHOU ABOGEN BIOSCIENCES CO., LTD., priority 2022, published 2024)
